Target: human, KCNT1 (Homo sapiens (Human), UniProt Q5JUK3)
Experiment: FLIPR Tl/K Flux Assay
Assay type: cell-based
Settings: HEK293 cells stably expressing human KCNT1; Tl+ flux stimulated with EC80 of agonist Loxapine
Description: HEK293 cells stably expressing human, KCNT1 were cultured in DMEM, 10% FBS, 100 U/mL penicillin-streptomycin and […] puromycin for selection purposes. One day before the assay, cells were detached using TrypLE™ Express and counted using a cell counter. Only cells with >85% viability were used for the assay. […] The cells were incubated overnight at 37° C., 5% (v/v) CO2.
On the day of the assay, the reagents were prepared following the FLIPR® Potassium Assay Kit manual: prepare 2× dye solution, dilute the dye with assay buffer (20 mM HEPES in 1× HBSS, PH7.4), addition of probenecid to a final concentration of 5 mM, and vortexed vigorously for 1-2 minutes. The cell plate was flicked to remove medium and tapped on paper towels to remove excess media. […] The cell plate was moved to a plate shaker, agitated at 600 rpm for two minutes, and then incubated at 25° C. for one hour.
The compounds were prepared in DMSO and transferred to a 384-well compound plate (PP, low binding), referred to as a source plate. Reference agonist (300 nM) compound and test inhibitor (10 mM) compounds were added to the compound plate and a 4-fold serial dilution was performed in DMSO. Using an ECHO dispenser, compounds were dispensed at 90 nL/well from the source plate to a 384-well compound plate (PP, low binding). After the dispensing was complete, 30 µL/well assay buffer was added to the compound plate and mixed for two minutes on a plate shaker. The cell plate, compound plate, and tips were loaded into the FLIPR instrument, and a transfer of 10 μl of 3× compound to the cell plate was initiated. The treated cell plate was kept at in the dark at 25° C. for 30 minutes. Chloride-free stimulation buffer containing 4× 2 mM Tl+ and 4×EC80 of agonist Loxapine was loaded into a 384-well compound plate (PP, low binding). After the 30-minute incubation, the cell plate, compound plate containing stimulation buffer, and FLIPR tips were loaded into the FLIPR instrument. After a baseline read, the FLIPR initiates a transfer of 10 μL of stimulation buffer containing Loxapine to the cell plate. The plate was read for 160 sec with 1 second interval reads to obtain the data.
The normalized fluorescence reading (RFU) was calculated as shown follow, while Fmax and Fmin stand for maximum and minimum of signal during defined time window. The IC50 was calculated by fitting % inhibition against log of compound concentrations with Hill equation using XLfit.

Chain of human, KCNT1 (Q5JUK3 whole entry): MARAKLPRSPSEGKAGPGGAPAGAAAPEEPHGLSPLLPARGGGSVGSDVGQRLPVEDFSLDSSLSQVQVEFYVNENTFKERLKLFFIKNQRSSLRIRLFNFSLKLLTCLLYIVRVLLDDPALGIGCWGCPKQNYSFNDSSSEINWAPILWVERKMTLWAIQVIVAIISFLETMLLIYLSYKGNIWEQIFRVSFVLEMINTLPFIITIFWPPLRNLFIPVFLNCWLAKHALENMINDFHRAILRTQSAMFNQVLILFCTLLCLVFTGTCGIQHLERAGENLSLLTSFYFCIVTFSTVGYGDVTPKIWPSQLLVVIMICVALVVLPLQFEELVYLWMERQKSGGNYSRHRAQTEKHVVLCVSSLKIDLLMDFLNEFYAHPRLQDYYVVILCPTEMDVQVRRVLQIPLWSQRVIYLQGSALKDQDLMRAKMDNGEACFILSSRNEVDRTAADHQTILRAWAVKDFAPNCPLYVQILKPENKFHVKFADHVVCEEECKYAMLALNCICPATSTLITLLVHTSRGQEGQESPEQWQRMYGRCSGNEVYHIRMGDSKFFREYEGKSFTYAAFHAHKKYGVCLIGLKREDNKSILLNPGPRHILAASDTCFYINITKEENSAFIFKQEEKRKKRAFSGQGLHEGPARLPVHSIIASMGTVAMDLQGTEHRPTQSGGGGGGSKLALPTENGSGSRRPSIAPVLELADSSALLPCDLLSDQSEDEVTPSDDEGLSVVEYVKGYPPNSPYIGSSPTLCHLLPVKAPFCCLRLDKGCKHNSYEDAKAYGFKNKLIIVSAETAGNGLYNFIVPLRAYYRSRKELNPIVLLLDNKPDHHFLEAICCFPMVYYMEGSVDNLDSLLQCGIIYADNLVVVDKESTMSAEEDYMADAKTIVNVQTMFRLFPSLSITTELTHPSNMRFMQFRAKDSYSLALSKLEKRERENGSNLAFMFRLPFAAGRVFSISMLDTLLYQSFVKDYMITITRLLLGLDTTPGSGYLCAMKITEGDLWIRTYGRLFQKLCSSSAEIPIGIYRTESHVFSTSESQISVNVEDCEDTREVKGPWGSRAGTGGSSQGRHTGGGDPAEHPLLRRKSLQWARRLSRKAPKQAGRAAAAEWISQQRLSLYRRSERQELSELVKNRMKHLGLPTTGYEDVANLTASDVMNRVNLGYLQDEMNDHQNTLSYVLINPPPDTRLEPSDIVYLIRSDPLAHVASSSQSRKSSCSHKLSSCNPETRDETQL

IC50 | SMILES
< 250 nM | Cn1nc(C(F)(F)F)cc1C(=O)NC1CCc2nn(-c3ccnc(C(F)(F)F)c3)cc21 (racemic) [Compound I-1, (rac)-1-Methyl-3-(trifluoromethyl)-N-(2-(2-(trifluoromethyl)pyridin-4-yl)-2,4,5,6-tetrahydrocyclopenta[c]pyrazol-4-yl)-1H-pyrazole-5-carboxamide]
< 250 nM | Cn1nc(C(F)(F)F)cc1C(=O)NC1CCCc2nn(-c3ccnc(C(F)(F)F)c3)cc21 (racemic) [Compound I-4, (rac)-1-Methyl-3-(trifluoromethyl)-N-(2-(2-(trifluoromethyl)pyridin-4-yl)-4,5,6,7-tetrahydro-2H-indazol-4-yl)-1H-pyrazole-5-carboxamide]
< 250 nM | CCn1nc(C(F)(F)F)cc1C(=O)NC1CCCc2nn(-c3ccnc(C(F)(F)F)c3)cc21 (racemic) [Compound I-7, (rac)-1-Ethyl-3-(trifluoromethyl)-N-(2-(2-(trifluoromethyl)pyridin-4-yl)-4,5,6,7-tetrahydro-2H-indazol-4-yl)-1H-pyrazole-5-carboxamide]
< 250 nM | Cn1nc(C(C)(F)F)cc1C(=O)NC1CCCc2nn(-c3ccnc(C(F)(F)F)c3)cc21 (racemic) [Compound I-10, (rac)-3-(1,1-Difluoroethyl)-1-methyl-N-(2-(2-(trifluoromethyl)pyridin-4-yl)-4,5,6,7-tetrahydro-2H-indazol-4-yl)-1H-pyrazole-5-carboxamide]
250 to 500 nM | Cn1nc(C2CC2)cc1C(=O)NC1CCCc2nn(-c3ccnc(C(F)(F)F)c3)cc21 (racemic) [Compound I-11, (rac)-3-Cyclopropyl-1-methyl-N-(2-(2-(trifluoromethyl)pyridin-4-yl)-4,5,6,7-tetrahydro-2H-indazol-4-yl)-1H-pyrazole-5-carboxamide]
< 250 nM | Cn1nc(C(F)F)cc1C(=O)NC1CCCc2nn(-c3ccnc(C(F)(F)F)c3)cc21 (racemic) [Compound I-12, (rac)-3-(Difluoromethyl)-1-methyl-N-(2-(2-(trifluoromethyl)pyridin-4-yl)-4,5,6,7-tetrahydro-2H-indazol-4-yl)-1H-pyrazole-5-carboxamide]
< 250 nM | CCOc1cc(-n2cc3c(n2)CCCC3NC(=O)c2cc(C)cc(C(F)(F)F)c2)ccn1 (racemic) [Compound I-15, (rac)-N-(2-(2-Ethoxypyridin-4-yl)-4,5,6,7-tetrahydro-2H-indazol-4-yl)-3-methyl-5-(trifluoromethyl)benzamide]
> 1000 nM | COc1cc(C(=O)NC2CCCc3nn(-c4ccnc(C(F)(F)F)c4)cc32)n(C)n1 (racemic) [Compound I-21, (rac)-3-Methoxy-1-methyl-N-(2-(2-(trifluoromethyl)pyridin-4-yl)-4,5,6,7-tetrahydro-2H-indazol-4-yl)-1H-pyrazole-5-carboxamide]
250 to 500 nM | CCOc1cc(C(=O)NC2CCCc3nn(-c4ccnc(C(F)(F)F)c4)cc32)n(C)n1 (racemic) [Compound I-22, (rac)-3-Ethoxy-1-methyl-N-(2-(2-(trifluoromethyl)pyridin-4-yl)-4,5,6,7-tetrahydro-2H-indazol-4-yl)-1H-pyrazole-5-carboxamide]
> 1000 nM | COCc1cc(C(=O)NC2CCCc3nn(-c4ccnc(C(F)(F)F)c4)cc32)n(C)n1 (racemic) [Compound I-23, (rac)-3-(Methoxymethyl)-1-methyl-N-(2-(2-(trifluoromethyl)pyridin-4-yl)-4,5,6,7-tetrahydro-2H-indazol-4-yl)-1H-pyrazole-5-carboxamide]
250 to 500 nM | COc1cc(-n2cc3c(n2)CCCC3NC(=O)c2cc(C(F)(F)F)nn2C)ccn1 (racemic) [Compound I-25, (rac)-N-(2-(2-Methoxypyridin-4-yl)-4,5,6,7-tetrahydro-2H-indazol-4-yl)-1-methyl-3-(trifluoromethyl)-1H-pyrazole-5-carboxamide]

The next lines start with the compound.

SMILES | IC50
CC(C)n1nc(C(F)(F)F)cc1C(=O)NC1CCCc2nn(-c3ccnc(C(F)(F)F)c3)cc21 (racemic) [Compound I-8, (rac)-1-Isopropyl-3-(trifluoromethyl)-N-(2-(2-(trifluoromethyl)pyridin-4-yl)-4,5,6,7-tetrahydro-2H-indazol-4-yl)-1H-pyrazole-5-carboxamide] | < 250 nM
O=C(NC1CCCc2nn(-c3ccnc(C(F)(F)F)c3)cc21)c1ccccc1 (racemic) [Compound I-13, (rac)-N-(2-(2-(Trifluoromethyl)pyridin-4-yl)-4,5,6,7-tetrahydro-2H-indazol-4-yl)benzamide] | < 250 nM
CCOc1cc(-n2cc3c(n2)CCCC3NC(=O)c2cc(Cl)cc(C(F)(F)F)c2)ccn1 (racemic) [Compound I-14, (rac)-3-Chloro-N-(2-(2-ethoxypyridin-4-yl)-4,5,6,7-tetrahydro-2H-indazol-4-yl)-5-(trifluoromethyl)benzamide] | < 250 nM
O=C(NC1CCCc2nn(-c3ccnc(C(F)(F)F)c3)cc21)c1ccc(C(F)(F)F)cc1 (racemic) [Compound I-16, (rac)-4-(Trifluoromethyl)-N-(2-(2-(trifluoromethyl)pyridin-4-yl)-4,5,6,7-tetrahydro-2H-indazol-4-yl)benzamide] | < 250 nM
Cc1cccc(C(=O)NC2CCCc3nn(-c4ccnc(C(F)(F)F)c4)cc32)c1 (racemic) [Compound I-17, (rac)-3-Methyl-N-(2-(2-(trifluoromethyl)pyridin-4-yl)-4,5,6,7-tetrahydro-2H-indazol-4-yl)benzamide] | < 250 nM
CCOc1cc(-n2cc3c(n2)CCCC3NC(=O)c2cccc(C(F)(F)F)c2)ccn1 (racemic) [Compound I-18, (rac)-N-(2-(2-Ethoxypyridin-4-yl)-4,5,6,7-tetrahydro-2H-indazol-4-yl)-3-(trifluoromethyl)benzamide] | < 250 nM
O=C(NC1CCCc2nn(-c3ccnc(C(F)(F)F)c3)cc21)c1ccc(C(F)(F)F)nc1 (racemic) [Compound I-19, (rac)-6-(Trifluoromethyl)-N-(2-(2-(trifluoromethyl)pyridin-4-yl)-4,5,6,7-tetrahydro-2H-indazol-4-yl)nicotinamide] | 250 to 500 nM
O=C(NC1CCCc2nn(-c3ccnc(C(F)(F)F)c3)cc21)c1ccnc(C(F)(F)F)c1 (racemic) [Compound I-20, (rac)-2-(Trifluoromethyl)-N-(2-(2-(trifluoromethyl)pyridin-4-yl)-4,5,6,7-tetrahydro-2H-indazol-4-yl)isonicotinamide] | < 250 nM
Cn1cc(C(F)(F)F)nc1C(=O)NC1CCCc2nn(-c3ccnc(C(F)(F)F)c3)cc21 (racemic) [Compound I-24, (rac)-1-Methyl-4-(trifluoromethyl)-N-(2-(2-(trifluoromethyl)pyridin-4-yl)-4,5,6,7-tetrahydro-2H-indazol-4-yl)-1H-imidazole-2-carboxamide] | 500 to 1000 nM
Cn1nc2ccccc2c1C(=O)NC1CCCc2nn(-c3ccnc(C(F)(F)F)c3)cc21 (racemic) [Compound I-26, (rac)-2-Methyl-N-(2-(2-(trifluoromethyl)pyridin-4-yl)-4,5,6,7-tetrahydro-2H-indazol-4-yl)-2H-indazole-3-carboxamide] | 250 to 500 nM
CCOc1cc(-n2cc3c(n2)CCCC3NC(=O)c2cc(C(F)(F)F)ccc2C)ccn1 (racemic) [Compound I-28, (rac)-N-(2-(2-Ethoxypyridin-4-yl)-4,5,6,7-tetrahydro-2H-indazol-4-yl)-2-methyl-5-(trifluoromethyl)benzamide] | 250 to 500 nM

— patent publication US20250313548A1 (Actio Biosciences, Inc., priority 2023, published 2025)
